Experimental data reported in patent US10864248B2, “Dab2 inhibitors for the prevention and treatment of cystic fibrosis” (Trustees of Dartmouth College, priority 2014, dated 2020).
pKi: −log10 of the molar value. Where two headings read alike, the source gives them in different places. Blank lines part the entries; values can stand above or below the compound they belong to. Peptide text beside a SMILES is read from it. * marks the point of attachment. Biotin = O=C1N[C@H]2[C@H](CS[C@H]2CCCCC(=O)*)N1; Ahx = NCCCCCC(=O)O

What was measured:
p67-isoform of Dab2 = p67-isoform of Dab2 (Homo sapiens (Human), UniProt P98082); assay: Peptide pull-down from CFBE cell lysates and western blot; assay type: binding; conditions: CFBE cell lysates, western blot
Chain of p67-isoform of Dab2 (P98082 other isoform, or with tags, fused parts or gaps): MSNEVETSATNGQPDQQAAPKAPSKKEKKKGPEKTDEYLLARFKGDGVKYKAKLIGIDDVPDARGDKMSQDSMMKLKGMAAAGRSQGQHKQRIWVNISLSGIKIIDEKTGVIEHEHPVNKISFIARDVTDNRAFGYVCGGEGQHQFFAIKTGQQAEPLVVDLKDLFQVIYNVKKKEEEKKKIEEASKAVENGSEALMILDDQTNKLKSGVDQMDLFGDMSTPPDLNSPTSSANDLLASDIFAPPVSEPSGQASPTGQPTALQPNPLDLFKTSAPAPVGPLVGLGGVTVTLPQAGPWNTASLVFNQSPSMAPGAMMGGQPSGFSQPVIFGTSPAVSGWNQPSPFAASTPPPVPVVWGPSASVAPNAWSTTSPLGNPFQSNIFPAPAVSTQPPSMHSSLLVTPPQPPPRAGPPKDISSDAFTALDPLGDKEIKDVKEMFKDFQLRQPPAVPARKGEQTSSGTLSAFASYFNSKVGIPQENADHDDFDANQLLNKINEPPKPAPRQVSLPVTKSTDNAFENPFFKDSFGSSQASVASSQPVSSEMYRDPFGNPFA
Procedure: (§1) Peptide Pull-down and Western Blotting. Streptavidin-paramagnetic particles (Promega) were washed twice with wash buffer (50 mM Tris pH 8.0, 150 mM NaCl, 2 mM EGTA, 2 mM EDTA, 5% glycerol, 1 mM DTT) and incubated with 20 μM BT-STA02 (N-terminally biotinylated STA02) for 1 hour on a rotator at 4° C. Beads were then washed twice with wash buffer and once with lysis buffer (50 mM Tris pH 8.0, 150 mM NaCl, 2 mM EGTA, 2 mM EDTA, 5% glycerol, 1 mM DTT, 1% IGEPAL, complete protease inhibitor tablet (Roche)) before incubation with cell lysate. CFBE cells were washed twice with cold PBS, incubated with lysis buffer for 20 minutes shaking at 4° C., scraped, passed through a 27G1/2 syringe, and spun at 13000 rpm for 15 minutes at 4° C. The supernatant was incubated with BT-STA02-coated beads for 2 hours on a rotator at 4° C. Beads were then washed twice with wash buffer and bound protein was eluted with Laemmli sample buffer (Bio-Rad) at 45° C. for 10 minutes. Samples were run on a 7.5% SDS-PAGE gel and probed with anti-Dab2 (BD Biosciences) or anti-p96 Dab2 (Epitomics).
(§2) Since Dab2 is a multi-modular adaptor protein, it was determined whether STA02 binding to the DH domain occurred with the full-length (FL) protein and in the context of other cellular interacting partners. To this end, the binding of STA02 to FL-Dab2 from bronchial epithelial (CFBE) cell lysates was tested in a pull-down assay. […]

p96-isoform of Dab2 = p96-isoform of Dab2 (Homo sapiens (Human), UniProt P98082); assay: as above; assay type: binding; conditions: CFBE cell lysates, western blot
Chain of p96-isoform of Dab2 (P98082 whole entry, canonical isoform): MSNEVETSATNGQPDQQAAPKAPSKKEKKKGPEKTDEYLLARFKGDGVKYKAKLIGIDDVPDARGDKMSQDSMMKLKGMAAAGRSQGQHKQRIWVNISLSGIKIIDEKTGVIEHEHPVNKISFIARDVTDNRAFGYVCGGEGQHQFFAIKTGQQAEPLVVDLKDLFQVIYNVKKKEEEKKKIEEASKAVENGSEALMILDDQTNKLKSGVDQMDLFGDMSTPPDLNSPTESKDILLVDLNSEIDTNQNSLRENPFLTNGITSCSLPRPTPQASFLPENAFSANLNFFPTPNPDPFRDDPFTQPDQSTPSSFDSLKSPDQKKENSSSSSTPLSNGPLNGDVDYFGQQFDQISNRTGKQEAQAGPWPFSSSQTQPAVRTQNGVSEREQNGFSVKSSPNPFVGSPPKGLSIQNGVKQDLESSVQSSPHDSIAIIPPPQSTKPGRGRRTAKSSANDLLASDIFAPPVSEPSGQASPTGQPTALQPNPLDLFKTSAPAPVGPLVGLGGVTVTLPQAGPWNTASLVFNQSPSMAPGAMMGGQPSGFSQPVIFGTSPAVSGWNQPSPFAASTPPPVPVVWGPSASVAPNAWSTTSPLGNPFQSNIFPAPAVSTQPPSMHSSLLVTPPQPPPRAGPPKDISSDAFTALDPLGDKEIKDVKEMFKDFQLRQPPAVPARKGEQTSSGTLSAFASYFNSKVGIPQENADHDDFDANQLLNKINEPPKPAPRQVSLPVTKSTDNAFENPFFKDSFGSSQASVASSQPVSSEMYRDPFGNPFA
Procedure: as §1, §2

Dab2-DH domain [1] = target: T1, Dab2-DH domain (Homo sapiens (Human), UniProt P98082); assay: Fluorescence polarization competition assay to identify small molecule inhibitors; assay type: binding; set-up: key to Ki: n.a., not active; +, fluorescence change with FP; conditions: FP competition
T1 sequence (P98082 33-191): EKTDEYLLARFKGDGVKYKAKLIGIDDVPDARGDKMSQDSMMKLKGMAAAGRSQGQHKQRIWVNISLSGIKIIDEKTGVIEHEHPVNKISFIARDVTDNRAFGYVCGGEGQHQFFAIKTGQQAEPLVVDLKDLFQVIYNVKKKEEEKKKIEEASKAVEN
Procedure: Fluorescence Polarization Competition Assay to Identify Small Molecule Inhibitors. […] Unlabeled competitor peptide (STA02) or compound hits were serially diluted and mixed with the protein-reporter mix. Percent DMSO in all samples was 1%. Plates were mixed by vibration, centrifuged at 1200 g for 2 minutes and allowed to equilibrate at room temperature for 30-45 minutes before measurement. Fluorescence polarization was measured at an excitation wavelength of 470±5 nm and an emission wavelength of 525±20 nm. Data analysis and calculation of binding affinities were as described above.
To test the validity of these hits on a smaller scale and to quantify the binding potencies (Ki values), an FP competition assay was carried out.

CFBE cells = assay: Toxicity assay (LDH); assay type: cell-based, human; conditions: for toxicity, of maximum toxicity (1% TRITON): 3 or 12 hours
Procedure: Toxicity and Cell Viability Assays. CFBE cells were seeded at 5×10^3 in 96-well plates. Cells were treated in fetal bovine serum (FBS)-free minimum essential medium (MEM, Gibco). Assays were performed and measured according to the CYTOTOX 96 Non-Radioactive cytotoxicity Assay (G1780) kit (Promega) and the […] 96 Aqueous One solution Cell proliferation Assay kit (Promega) instructions. Percent toxicity for the LDH assay was calculated as: […]
A background signal of 0.2% DMSO in media from a well without cells was subtracted from all readings before the above-referenced calculations.

ΔF508-CFTR = ΔF508-CFTR (Homo sapiens (Human), UniProt P13569, DEL508-508); assay: Short-circuit current (Isc), chloride currents in combination therapy; conditions: for chloride currents: 20 μM, in parallel with VX809 0.1 μM (48 hours) and Kalydeco (acutely), CFBE cells
[2] = system: subjects with the G551D mutation; conditions: 48-week clinical trial; cited from earlier work
CF patients = conditions: in combination with KALYDECO; cited from earlier work
Dab2-DH domain [3] = target: T1, Dab2-DH domain; assay: Fluorescence polarization competition binding of unlabeled peptides (reporter F*-STA02); conditions: STA02 compared to STA01
Procedure: Fluorescence Polarization. Fluorescence polarization (FP) data were measured on a microplate reader (Tecan Infinite M1000, Mannedorf, Switzerland) at 27° C. […] Plates were mixed by vibration, centrifuged for 2 minutes at 1200 g to remove air bubbles and allowed to equilibrate for 30 minutes at room temperature before measurement. […] Unlabeled competitor peptides were serially diluted and mixed with the protein-reporter mix. […] [formula] where [P]tot=total protein concentration and Kd=equilibrium dissociation constant of [PL]. Competition isotherms were fit using a non-linear least-squares algorithm implemented in EXCEL using the SOLVER function. rexp was fit to: [formula] where the free protein concentration [P] in the presence of both the reporter and competitive inhibitor was calculated as a function of the total protein and ligand concentrations and the equilibrium dissociation constant Kd (known) and Ki (fit), respectively, by exact analytical solution of the resulting cubic equation (Wang, et al. (1995) Biotechnol. Prog. 11:558-64).

Dab2-DH domain [4] = target: T1, Dab2-DH domain; assay: Isothermal titration calorimetry; assay type: binding
Procedure: Isothermal Titration calorimetry. Dab2-DH protein was dialyzed versus 150 mM NaCl, 25 mM Tris pH 8.0, and 0.02% NaN3 or 150 mM NaCl, 25 mM NaH2PO4/Na2HPO4 pH 7.4, and 0.02% NaN3. Peptides were solubilized in recovered and degassed dialysis buffer. […] Thus, to maintain a constant DMSO concentration between the cell chamber (protein solution) and the syringe (peptide solution), 1-2% DMSO was added to the ITC-protein solution. Experiments were performed at 15, 25, or 35±0.2° C. on a MICROCAL VP-ITC calorimeter. A 2 μL peptide injection over 4.1 seconds preceded 30-10 μL injections over 300 seconds each. The system was allowed to equilibrate (reach baseline) between injections for 300 seconds while stirring at a speed of 300 rpm. ITC thermograms were fit to a single-site binding model using Origin software package v11. The ITC data were presented by showing the baseline-adjusted titration as heat flow versus time (top) and the peak-integrated concentration-normalized molar heat flow per injection versus the peptide: protein molar ratio (bottom). To account for the contribution of protein, peptide, and buffer protonation enthalpies to the binding enthalpies and consequently the binding constants, titrations in buffers with known and distinct heats of ionization (Tris and Phosphate buffers) were conducted.

[5] = reporter F*-STA02, read-out: Ki

binding of p67-isoform of Dab2 (p67-isoform of Dab2): did not
binding of p96-isoform of Dab2 (p96-isoform of Dab2): bound
SMILES: CSCC[C@H](NC(=O)[C@H](CC(N)=O)NC(=O)[C@H](CCC(=O)O)NC(=O)[C@H](CCC(N)=O)NC(=O)[C@@H]1CCCN1C(=O)[C@H](CCC(N)=O)NC(=O)[C@H](Cc1ccc(O)cc1)NC(=O)[C@H](CC(N)=O)NC(=O)[C@@H]1CCCN1C(=O)[C@H](CC(N)=O)NC(=O)[C@H](CC(=O)O)NC(=O)[C@H](Cc1ccccc1)NC(=O)CNC(=O)CNC(=O)[C@H](CO)NC(=O)CNC(=O)[C@H](CO)NC(=O)CCCCCNC(=O)CCCC[C@@H]1SC[C@@H]2NC(=O)N[C@@H]21)C(=O)N[C@@H](CCC(N)=O)C(=O)N[C@@H](C)C(=O)O [BT-STA02] ({Biotin-Ahx}-SGSGGFDNPNYQPQENMQA-OH; C-terminus assumed)

SMILES: CN1CCc2cccc3c2[C@@H]1Cc1ccc(O)c(O)c1-3.Cl [Compound 1, S(+)-10,11-Dihydroxyaporphine Hydrochloride]
pKi (Dab2-DH domain [1]; [5]): 5.72
toxicity, of maximum toxicity (1% TRITON) (CFBE cells; 40 μM): 10%
toxicity (CFBE cells; 40 μM, 24 hours): 20-40%
chloride currents (ΔF508-CFTR): enhanced chloride currents

SMILES: C[C@]12CC[C@@H]3c4cc(O)c(O)cc4CC[C@H]3[C@@H]1CC[C@@H]2O [Compound 2, 2-Hydroxyestradiol]
toxicity, of maximum toxicity (1% TRITON) (CFBE cells; 40 μM): 10%

pKi (Dab2-DH domain [1]; [5]): 6.11
pKi (Dab2-DH domain [1]; read-out: binding affinity (Ki)): 6.11
benefit compared to VX809 (ANOVA, P<0.05) (ΔF508-CFTR; 20 μM in combination with VX809 0.1 μM): statistically significant benefit
chloride currents (ΔF508-CFTR): enhanced chloride currents
SMILES: CC1(C)Cc2ccccc2-c2n[nH]c(=S)n21 [Compound 3, 5,5-dimethyl-5,6-dihydro [1,2,4]triazolo[3,4-a] isoquinoline-3(2H)-thione]
toxicity (CFBE cells; 3 hours): no toxicity

Ki (Dab2-DH domain [1]; symbols): +
total fluorescence (Dab2-DH domain [1]; Ki not obtained): increased total fluorescence
SMILES: OCCN(CCO)c1nc(N2CCCCC2)c2nc(N(CCO)CCO)nc(N3CCCCC3)c2n1 [Compound 5, Dipyridamole]

SMILES: CC(C)(C)c1cc(C(C)(C)C)c(NC(=O)c2c[nH]c3ccccc3c2=O)cc1O [KALYDECO, N-(2,4-Di-tert-butyl-5-hydroxyphenyl)-4-oxo-1,4-dihydroquinoline-3-carboxamide]
drop in pulmonary exacerbations [2]: 55%
improvement in lung function (predicted FEV1) [2]: 10.6%
reduction in sweat chloride [2]: 48 mEq/L

SMILES: Cc1ccc(NC(=O)C2(c3ccc4c(c3)OC(F)(F)O4)CC2)nc1-c1cccc(C(=O)O)c1 [Lumacaftor, 3-{6-{[1-(2,2-difluoro-1,3-benzodioxo1-5-yl)cyclopropanecarbonyl]amino}-3-methylpyridin-2-yl}benzoic acid]
patients with >5% increase in FEV1 (CF patients): 55%
patients with >10% increase in FEV1 (CF patients): 25%

increase in binding affinity (Dab2-DH domain [3]): 2 fold
net release of protons during binding (NH+) (Dab2-DH domain [4]; Tris and phosphate buffers): 0.04 per mole
ΔH (Dab2-DH domain [4]; Tris buffer, 25° C.): -20.7 ± 1.45 kcal/mol
ΔS (Dab2-DH domain [4]; Tris buffer, 25° C.): −37.8 cal/mol/K
TΔS (Dab2-DH domain [4]; estimated, 37° C.): -16.1 kcal/mol
ΔG (Dab2-DH domain [4]; estimated, 37° C.): -8.9 kcal/mol
ΔH (Dab2-DH domain [4]; estimated, 37° C.): -25.0 kcal/mol
change of heat capacity, ΔCp (Dab2-DH domain [4]; from ΔH at 15, 25, and 35° C.): −320 cal/mol/K
SMILES: CSCC[C@H](NC(=O)[C@H](CC(N)=O)NC(=O)[C@H](CCC(=O)O)NC(=O)[C@H](CCC(N)=O)NC(=O)[C@@H]1CCCN1C(=O)[C@H](CCC(N)=O)NC(=O)[C@H](Cc1ccc(O)cc1)NC(=O)[C@H](CC(N)=O)NC(=O)[C@@H]1CCCN1C(=O)[C@H](CC(N)=O)NC(=O)[C@H](CC(=O)O)NC(=O)[C@H](Cc1ccccc1)NC(=O)CNC(=O)[C@H](CC(N)=O)NC(=O)[C@@H](N)CCC(N)=O)C(=O)N[C@@H](CCC(N)=O)C(=O)N[C@@H](C)C(=O)O [STA02]
